Experimental data: ChEMBL document CHEMBL5143762, “Novel Coronavirus Main Protease Di- and Tripeptide Inhibitors for Treating COVID-19” (ACS Med Chem Lett, 2022)
pIC50: −log10 of the molar value.

Target: Replicase polyprotein 1ab (Severe acute respiratory syndrome coronavirus 2, UniProt P0DTD1)
Test: Inhibition of recombinant SARS-CoV-2 Main protease using TAMRA-SITSAVLQSGFRKMK-DABCYL-OH fluorogenic peptide as substrate preincubated or 30 mins followed by substrate addition by FRET assay

Row | SMILES | pIC50
1 | CC(C)C(=O)N[C@H](C(=O)N1C[C@H]2[C@@H]([C@H]1C(=O)N[C@H](C#N)C[C@@H]1CCNC1=O)C2(C)C)C(C)(C)C | > 7.00
2 | COc1cccc2[nH]c(C(=O)N3C[C@@H]4CCC[C@@H]4[C@H]3C(=O)N[C@@H](C[C@@H]3CCNC3=O)C(=O)CCl)cc12 | 7.00
3 | CC(C)(C)[C@H](NC(=O)Cc1ccccc1)C(=O)N1C[C@H]2[C@@H]([C@H]1C(=O)N[C@H](C#N)C[C@@H]1CCNC1=O)C2(C)C | > 7.00
4 | COc1cccc2[nH]c(C(=O)N3C[C@@H]4CCC[C@@H]4[C@H]3C(=O)N[C@@H](C[C@@H]3CCNC3=O)C(=O)C(=O)NC3CCCCC3)cc12 | > 7.00
5 | CC(=O)N[C@H](C(=O)N1C[C@H]2[C@@H]([C@H]1C(=O)N[C@H](C#N)C[C@@H]1CCNC1=O)C2(C)C)C(C)(C)C | > 7.00
6 | COc1cccc2[nH]c(C(=O)N3C[C@@H]4CCC[C@@H]4[C@H]3C(=O)N[C@H](C=O)C[C@@H]3CCNC3=O)cc12 | > 7.00
7 | COc1cccc2[nH]c(C(=O)N3C[C@@H]4CCC[C@@H]4[C@H]3C(=O)N[C@@H](C[C@@H]3CCNC3=O)C(=O)COC(=O)c3c(Cl)cccc3Cl)cc12 | > 7.00
8 | COc1cccc2[nH]c(C(=O)N3C[C@@H]4CCC[C@@H]4[C@H]3C(=O)N[C@@H](C[C@@H]3CCNC3=O)C(=O)CO)cc12 | 7.00
9 | CC1(C)[C@@H]2[C@@H](C(=O)N[C@H](C#N)C[C@@H]3CCNC3=O)N(C(=O)c3cc4c(OC(F)F)cccc4[nH]3)C[C@@H]21 | 7.00
10 | CCC(=O)N[C@H](C(=O)N1C[C@H]2[C@@H]([C@H]1C(=O)N[C@H](C#N)C[C@@H]1CCNC1=O)C2(C)C)C(C)(C)C | > 7.00
11 | N#C[C@H](C[C@@H]1CCNC1=O)NC(=O)[C@@H]1CCCN1C(=O)c1cc2c(OC(F)F)cccc2[nH]1 | < 6.00
12 | CC(C)(C)[C@H](NC(=O)C1CCCCC1)C(=O)N1C[C@H]2[C@@H]([C@H]1C(=O)N[C@H](C#N)C[C@@H]1CCNC1=O)C2(C)C | > 7.00
13 | CC(C)(C)C(=O)N[C@H](C(=O)N1C[C@H]2[C@@H]([C@H]1C(=O)N[C@H](C#N)C[C@@H]1CCNC1=O)C2(C)C)C(C)(C)C | > 7.00
